{"source": "paper PMC12526203", "about": "“Multicomponent Synthesis of Multi-Target Quinazolines Modulating Cholinesterase, Oxidative Stress, and Amyloid Aggregation Activities for the Therapy of Alzheimer’s Disease” (Molecules, 2025)", "key": {"[1]": {"target": "T1, Electrophorus electricus AChE (EeAChE) (Electrophorus electricus, UniProt O42275)", "T1 construct": "purchased Merck", "T1 sequence (O42275 24-633)": "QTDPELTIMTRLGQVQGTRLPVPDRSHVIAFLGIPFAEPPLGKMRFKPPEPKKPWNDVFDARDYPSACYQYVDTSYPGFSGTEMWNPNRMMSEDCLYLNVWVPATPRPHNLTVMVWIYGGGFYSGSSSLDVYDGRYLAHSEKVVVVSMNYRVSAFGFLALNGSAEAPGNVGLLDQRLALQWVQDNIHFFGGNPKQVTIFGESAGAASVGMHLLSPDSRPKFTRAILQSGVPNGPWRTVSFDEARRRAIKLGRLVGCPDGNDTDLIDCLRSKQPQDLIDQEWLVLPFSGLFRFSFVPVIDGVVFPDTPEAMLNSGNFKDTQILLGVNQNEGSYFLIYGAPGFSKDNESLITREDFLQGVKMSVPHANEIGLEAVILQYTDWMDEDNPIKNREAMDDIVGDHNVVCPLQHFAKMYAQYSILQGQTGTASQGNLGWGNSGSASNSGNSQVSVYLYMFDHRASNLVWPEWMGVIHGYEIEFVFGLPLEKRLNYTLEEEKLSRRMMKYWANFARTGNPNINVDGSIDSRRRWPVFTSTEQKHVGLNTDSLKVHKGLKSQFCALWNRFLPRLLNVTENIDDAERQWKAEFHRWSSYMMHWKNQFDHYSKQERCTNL", "test": "biochemical", "details": "for inhibition at 10 µM: read-out: % inhibition of EeAChE at 10 μM (footnote c); for IC50: Ellman method, pH 8.0", "experimental": "(§1) The inhibitory activities of the tested compounds against EeAChE and eqBuChE were determined using the spectrophotometric procedure based on Ellman’s method. […] After a pre-incubation step, acetylthiocholine iodide (105 µL, final concentration 0.35 mM) or butyrylthiocholine iodide (150 µL, final concentration 0.5 mM) was added, and the mixture was incubated for an additional 15 min."}, "equine BuChE (eqBuChE)": {"target": "T2, equine BuChE (eqBuChE) (Equus caballus, UniProt P81908)", "T2 construct": "purchased Merck", "T2 sequence (P81908 whole entry)": "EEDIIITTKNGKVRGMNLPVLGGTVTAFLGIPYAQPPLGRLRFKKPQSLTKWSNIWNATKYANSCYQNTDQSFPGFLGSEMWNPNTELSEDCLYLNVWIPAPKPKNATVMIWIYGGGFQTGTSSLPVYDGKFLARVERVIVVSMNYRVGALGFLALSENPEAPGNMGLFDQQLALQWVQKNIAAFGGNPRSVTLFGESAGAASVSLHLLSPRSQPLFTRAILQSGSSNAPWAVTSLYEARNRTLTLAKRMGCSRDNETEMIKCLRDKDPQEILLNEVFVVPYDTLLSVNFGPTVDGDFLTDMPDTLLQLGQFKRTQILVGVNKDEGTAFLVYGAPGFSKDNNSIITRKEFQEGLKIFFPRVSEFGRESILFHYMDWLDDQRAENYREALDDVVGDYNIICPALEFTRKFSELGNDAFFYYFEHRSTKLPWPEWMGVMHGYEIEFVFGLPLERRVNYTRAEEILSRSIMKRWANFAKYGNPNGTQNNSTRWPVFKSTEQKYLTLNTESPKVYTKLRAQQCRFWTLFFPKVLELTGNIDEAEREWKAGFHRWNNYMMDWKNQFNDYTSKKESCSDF", "test": "biochemical", "assay_type": "biochemical", "details": "for inhibition at 10 µM: read-out: % inhibition of eqBuChE at 10 μM (footnote c); for IC50: pH 8.0", "experimental": "as §1"}, "Aβ1–42": {"target": "T3, Aβ1–42 (Homo sapiens, UniProt P05067)", "T3 construct": "purchased Merck", "T3 sequence (P05067 672-713)": "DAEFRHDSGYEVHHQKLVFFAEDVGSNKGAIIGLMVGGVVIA", "test": "Aβ1–42 self-aggregation, thioflavin T-based fluorometric assay", "assay_type": "biochemical", "details": "ThT assay; for inhibition at 50 µM (stock): [Aβ] = [Inhibitor] = 50 μM (Figure 1 legend)", "experimental": "Curcumin was used as a positive control.\nA ThT fluorescence assay evaluated the effect of the test compounds on Aβ1−42 fibril formation. Aβ stock solutions were diluted to 50 μM in ultrapure water before use. […] Control samples were prepared by replacing Aβ with 50 mM phosphate buffer (pH 7.4), with or without the inhibitors. After incubation, samples were diluted to 360 μL with 50 mM glycine-NaOH buffer (pH 8.0) containing thioflavin T (5 μM)."}, "[2]": {"test": "ORAC-FL (Oxygen Radical Absorbance Capacity by Fluorescence) assay", "details": "Trolox equivalents", "experimental": "Briefly, fluorescein and the test compound were pre-incubated in a black 96-well microplate (Nunc) at 37 °C for 15 min. Then, 2,2′-azobis(amidinopropane) dihydrochloride was rapidly added using the integrated injector of a Varioskan Flash plate reader (Thermo Scientific). […] Each experiment was conducted in triplicate, with a minimum of three independent assays performed per compound."}, "[3]": {"details": "reported as a standard antioxidant; cited from earlier work"}}, "note": "Values joined by “and” are separate entries in the source; they are usually repeats but may differ in a detail not shown here. Equal values may be shown once. “Also recorded” adds a separate entry of the source. Read-outs that look alike come from different tables or passages of the source.", "data": [{"smiles": "c1ccc(Nc2ncnc3ccccc23)cc1", "note": "[3a, 4-anilinoquinazoline]", "values": [{"measurement": "inhibition at 10 µM", "setting": "[1]", "value": "< 50", "unit": "%"}, {"measurement": "inhibition at 10 µM", "setting": "equine BuChE (eqBuChE)", "value": "< 50", "unit": "%"}, {"measurement": "inhibition at 50 µM (stock)", "setting": "Aβ1–42", "value": 10.3, "unit": "%"}]}, {"smiles": "Cc1nc(Nc2ccccc2)c2ccccc2n1", "note": "[3b, 2-Methyl-4-anilinoquinazoline]", "values": [{"measurement": "inhibition at 10 µM", "setting": "[1]", "value": "< 50", "unit": "%"}, {"measurement": "inhibition at 10 µM", "setting": "equine BuChE (eqBuChE)", "value": "< 50", "unit": "%"}, {"measurement": "ORAC", "setting": "[2]", "value": "0.51 ± 0.02", "unit": "TE"}, {"measurement": "Inhibition of Aβ1–42 self-aggregation (in words)", "setting": "Aβ1–42", "value": "did not display measurable activity"}]}, {"smiles": "CCc1nc(Nc2ccccc2)c2ccccc2n1", "note": "[3c, 2-Ethyl-4-anilinoquinazoline]", "values": [{"measurement": "inhibition at 10 µM", "setting": "[1]", "value": "< 50", "unit": "%"}, {"measurement": "IC50", "setting": "equine BuChE (eqBuChE); Ellman method", "value": "5.34 ± 0.15", "unit": "µM"}]}, {"smiles": "COc1cc(Nc2ncnc3ccccc23)cc(OC)c1", "note": "[3d, 4-(3,5-Dimethoxyphenyl)aminoquinazoline]", "values": [{"measurement": "inhibition at 10 µM", "setting": "[1]", "value": "< 50", "unit": "%"}, {"measurement": "inhibition at 10 µM", "setting": "equine BuChE (eqBuChE)", "value": "< 50", "unit": "%"}, {"measurement": "Inhibition of Aβ1–42 self-aggregation (in words)", "setting": "Aβ1–42", "value": "did not display measurable activity"}]}, {"smiles": "COc1cc(Nc2nc(C)nc3ccccc23)cc(OC)c1", "note": "[3e, 2-methyl-4-(3,5-Dimethoxyphenyl)aminoquinazoline]", "values": [{"measurement": "IC50", "setting": "[1]", "value": "6.04 ± 1.05", "unit": "µM"}, {"measurement": "IC50", "setting": "equine BuChE (eqBuChE); Ellman method", "value": "9.43 ± 1.13", "unit": "µM"}, {"measurement": "ORAC", "setting": "[2]", "value": "1.81 ± 0.19", "unit": "TE"}, {"measurement": "Inhibition of Aβ1–42 self-aggregation (in words)", "setting": "Aβ1–42", "value": "did not display measurable activity"}]}, {"smiles": "CCc1nc(Nc2cc(OC)cc(OC)c2)c2ccccc2n1", "note": "[3f, 2-ethyl-4-(3,5-Dimethoxyphenyl)aminoquinazoline]", "values": [{"measurement": "inhibition at 10 µM", "setting": "[1]", "value": "< 50", "unit": "%"}, {"measurement": "IC50", "setting": "equine BuChE (eqBuChE); Ellman method", "value": "8.5 ± 1.16", "unit": "µM"}, {"measurement": "ORAC", "setting": "[2]", "value": "1.29 ± 0.08", "unit": "TE"}, {"measurement": "inhibition at 50 µM (stock)", "setting": "Aβ1–42", "value": 13.6, "unit": "%"}]}, {"smiles": "COc1ccc(Nc2ncnc3ccccc23)cc1OC", "note": "[3g, 4-(3,4-Dimethoxyphenyl)aminoquinazoline]", "values": [{"measurement": "inhibition at 10 µM", "setting": "[1]", "value": "< 50", "unit": "%"}, {"measurement": "inhibition at 10 µM", "setting": "equine BuChE (eqBuChE)", "value": "< 50", "unit": "%"}, {"measurement": "ORAC", "setting": "[2]", "value": "5.46 TE and 5.46 ± 0.11 TE"}, {"measurement": "inhibition at 50 µM (stock)", "setting": "Aβ1–42", "value": 14.7, "unit": "%"}]}, {"smiles": "CCc1nc(Nc2ccc(OC)c(OC)c2)c2ccccc2n1", "note": "[3h, 2-ethyl-4-(3,4-Dimethoxyphenyl)aminoquinazoline]", "values": [{"measurement": "IC50", "setting": "[1]", "value": "6.67 µM and 6.61 µM"}, {"measurement": "eqBuChE inhibition (in words)", "setting": "equine BuChE (eqBuChE); Ellman method", "value": "inactive"}, {"measurement": "inhibition at 10 µM", "setting": "equine BuChE (eqBuChE)", "value": "< 50", "unit": "%"}, {"measurement": "ORAC", "setting": "[2]", "value": "5.73 TE and 5.73 ± 0.39 TE"}, {"measurement": "inhibition at 50 µM (stock)", "setting": "Aβ1–42", "value": 36.7, "unit": "%"}]}, {"smiles": "Cc1ccc(Nc2ncnc3ccccc23)cc1", "note": "[3i, 4-(p-Tolyl)aminoquinazoline]", "values": [{"measurement": "inhibition at 10 µM", "setting": "[1]", "value": "< 50", "unit": "%"}, {"measurement": "inhibition at 10 µM", "setting": "equine BuChE (eqBuChE)", "value": "< 50", "unit": "%"}, {"measurement": "inhibition at 50 µM (stock)", "setting": "Aβ1–42", "value": 7.1, "unit": "%"}]}, {"smiles": "Cc1ccc(Nc2nc(C)nc3ccccc23)cc1", "note": "[3j, 2-Methyl-4-(p-tolyl)aminoquinazoline]", "values": [{"measurement": "inhibition at 10 µM", "setting": "[1]", "value": "< 50", "unit": "%"}, {"measurement": "inhibition at 10 µM", "setting": "equine BuChE (eqBuChE)", "value": "< 50", "unit": "%"}, {"measurement": "ORAC", "setting": "[2]", "value": "0.75 ± 0.08", "unit": "TE"}, {"measurement": "inhibition at 50 µM (stock)", "setting": "Aβ1–42", "value": 21.2, "unit": "%"}]}, {"smiles": "CCc1nc(Nc2ccc(C)cc2)c2ccccc2n1", "note": "[3k, 2-Ethyl-4-(p-tolyl)aminoquinazoline]", "values": [{"measurement": "inhibition at 10 µM", "setting": "[1]", "value": "< 50", "unit": "%"}, {"measurement": "inhibition at 10 µM", "setting": "equine BuChE (eqBuChE)", "value": "< 50", "unit": "%"}, {"measurement": "ORAC", "setting": "[2]", "value": "0.58 ± 0.04", "unit": "TE"}, {"measurement": "inhibition at 50 µM (stock)", "setting": "Aβ1–42", "value": 9.4, "unit": "%"}]}, {"smiles": "Cc1cccc(Nc2ncnc3ccccc23)c1C", "note": "[3l, 4-(2,3-Dimethylphenyl)aminoquinazoline]", "values": [{"measurement": "inhibition at 10 µM", "setting": "[1]", "value": "< 50", "unit": "%"}, {"measurement": "inhibition at 10 µM", "setting": "equine BuChE (eqBuChE)", "value": "< 50", "unit": "%"}, {"measurement": "ORAC", "setting": "[2]", "value": "0.32 ± 0.05", "unit": "TE"}, {"measurement": "inhibition at 50 µM (stock)", "setting": "Aβ1–42", "value": 8.74, "unit": "%"}]}, {"smiles": "Cc1nc(Nc2cccc(C)c2C)c2ccccc2n1", "note": "[3m, 2-methyl-4-(2,3-Dimethylphenyl)aminoquinazoline]", "values": [{"measurement": "inhibition at 10 µM", "setting": "[1]", "value": "< 50", "unit": "%"}, {"measurement": "inhibition at 10 µM", "setting": "equine BuChE (eqBuChE)", "value": "< 50", "unit": "%"}, {"measurement": "inhibition at 50 µM (stock)", "setting": "Aβ1–42", "value": 15.8, "unit": "%"}]}, {"smiles": "O=[N+]([O-])c1ccc(Nc2ncnc3ccccc23)cc1", "note": "[3n, 4-(4-Nitrophenyl)aminoquinazoline]", "values": [{"measurement": "inhibition at 10 µM", "setting": "[1]", "value": "< 50", "unit": "%"}, {"measurement": "inhibition at 10 µM", "setting": "equine BuChE (eqBuChE)", "value": "< 50", "unit": "%"}, {"measurement": "inhibition at 50 µM (stock)", "setting": "Aβ1–42", "value": 6.57, "unit": "%"}]}, {"smiles": "Cc1nc(Nc2ccc([N+](=O)[O-])cc2)c2ccccc2n1", "note": "[3o, 2-Methyl-4-(4-nitrophenyl)aminoquinazoline]", "values": [{"measurement": "inhibition at 10 µM", "setting": "[1]", "value": "< 50", "unit": "%"}, {"measurement": "inhibition at 10 µM", "setting": "equine BuChE (eqBuChE)", "value": "< 50", "unit": "%"}, {"measurement": "ORAC", "setting": "[2]", "value": "0.36 ± 0.01", "unit": "TE"}, {"measurement": "inhibition at 50 µM (stock)", "setting": "Aβ1–42", "value": 13.7, "unit": "%"}]}, {"smiles": "Clc1ccc(Nc2ncnc3ccccc23)cc1", "note": "[3p, 4-(4-Chlorophenyl)aminoquinazoline]", "values": [{"measurement": "inhibition at 10 µM", "setting": "[1]", "value": "< 50", "unit": "%"}, {"measurement": "inhibition at 10 µM", "setting": "equine BuChE (eqBuChE)", "value": "< 50", "unit": "%"}, {"measurement": "ORAC", "setting": "[2]", "value": "0.40 ± 0.07", "unit": "TE"}, {"measurement": "Inhibition of Aβ1–42 self-aggregation (in words)", "setting": "Aβ1–42", "value": "inactive; also recorded: did not display measurable activity"}]}, {"smiles": "CCc1nc(Nc2ccc(Cl)cc2)c2ccccc2n1", "note": "[3q, 2-ethyl-4-(4-Chlorophenyl)aminoquinazoline]", "values": [{"measurement": "inhibition at 10 µM", "setting": "[1]", "value": "< 50", "unit": "%"}, {"measurement": "IC50", "setting": "equine BuChE (eqBuChE); Ellman method", "value": "8.64 ± 0.3", "unit": "µM"}, {"measurement": "inhibition at 50 µM (stock)", "setting": "Aβ1–42", "value": 1.45, "unit": "%"}]}, {"smiles": "COc1cc(/C=C/C(=O)CC(=O)/C=C/c2ccc(O)c(OC)c2)ccc1O", "note": "[Curcumin, reference compound]", "values": [{"measurement": "inhibition at 50 µM (stock)", "setting": "Aβ1–42", "value": 58, "unit": "%"}]}, {"smiles": "COc1cc(/C=C/C(=O)O)ccc1O", "note": "[ferulic acid]", "values": [{"measurement": "ORAC", "setting": "[3]", "value": 3.7, "unit": "TE"}]}]}
